What all share (assay type): in vivo
One assay deals with Arabidopsis seedlings. Put plainly: Osmotic stress tolerance in Arabidopsis seedlings (sorbitol). Particulars: low concentrations; ½MS with sorbitol. The method, then: FIGS. 4A-4D: Effect of A68 and its variant A68-6 on Arabidopsis growth in osmotic stress conditions. The two compounds were tested at 3 different concentrations in ½MS without sucrose supplemented with 100 mM sorbitol. The extent of stress tolerance in presence of the small molecules was estimated by following the rosette size (FIG. 4A) as well as root related parameters, such as the total (FIG. 4B) and main (FIG. 4C) root length and lateral root number (FIG. 4D). Results are presented relative to the mock-treated control (0.005% DMSO). FIGS. 5A-5D: Effect of A68-6 on Arabidopsis growth in osmotic stress conditions. The compound was tested at 3 different concentrations in ½MS without sucrose supplemented with 200 mM sorbitol. The extent of stress tolerance in presence of the small molecules was estimated by following the rosette size (FIG. 5A) as well as root related parameters, such as the total (FIG. 5B) and main (FIG. 5C) root length and lateral root number (FIG. 5D). Results are presented relative to the mock-treated control (0.005% DMSO).

In assay [1] the test system is Arabidopsis Col-0 seedlings. The assay is described as follows: Arabidopsis primary root growth / lateral root number. The conditions noted are these: long day (LD: 16/8 h) conditions. From the text:
FIG. 1: Left: hypocotyl length of Arabidopsis Col-0 seedlings germinated on solid ½MS medium for 4 days and then transferred for 3 more days to liquid ½MS supplemented with a range of concentrations of A68. Right: primary root length of Arabidopsis Col-0 seedlings grown on solid ½MS medium supplemented with a range of concentrations of A68 for 12 days. A bioactive compound, herein further designated as A68, was identified by screening a commercial 10,000 compound library (DIVERSet, ChemBridge Corporation) for hypocotyl elongation phenotype at a final concentration of 50 μM in 2% DMSO. A68 promotes hypocotyl elongation, while suppresses primary root growth but increases lateral root number under long day (LD: 16/8 h) conditions (see FIG. 1).

The test system of assay [2] is Strawberry, Fragaria ananasa, cv. Elsanta. The assay is described as follows: Efficacy trial against frost damage on strawberry (trial 22.RM.SAB.028). From the text:
Preparation of the agronomical formulation: compound A68 is suspended in acetone at a concentration of 1 g/l. Further in this example this suspension is designated as 22.SC.040.
Trial setup: Strawberry, Fragaria ananasa, tray plants cv. Elsanta were planted in P13 pots, 1 plant per pot. The used substrate was a standard strawberry-substrate with addition of 180 g Osmocoat/651 substrate. (Osmocoat 18-5-11+4CaO+2MgO Agroblen 3-4 months).
36 plants (6 objects×6 repetitions) were randomly placed on tables with eb-flood system (21 l/2.5 m2 during 10 minutes, 2×/24 hours) in the greenhouse (22° C./10° C. day/night; 50% RH).
Foliar applications were executed in a standardized spraying cabin. A nozzle (Albuz TVI, color green) moved over the plants with a constant speed, simulating a spraying volume of 300l/ha.
At full bloom of the first flower branch, these branches were marked with a plastic strip. The plants were placed on pallets and enter a fridge at 5° C. during night, to decrease warmth in the substrate and chill the plants. The next morning, the plants were moved from the fridge to a freezing container. […]
One day and one week after frost, the flowers on the marked branches were assessed. […]
When the fruits ripen, the ripe fruits were picked. […] Also, the number of fruits were counted and the weight was measured. […]

The test system of assay [3] is Arabidopsis Col-0 seedlings. Put plainly: Arabidopsis hypocotyl elongation (growth) assay. The conditions noted are these: long day (LD: 16/8 h) conditions. The method, then:
FIG. 1: Left: hypocotyl length of Arabidopsis Col-0 seedlings germinated on solid ½MS medium for 4 days and then transferred for 3 more days to liquid ½MS supplemented with a range of concentrations of A68. Right: primary root length of Arabidopsis Col-0 seedlings grown on solid ½MS medium supplemented with a range of concentrations of A68 for 12 days. FIG. 2: Effects of A68 and its related variants on the Arabidopsis hypocotyl elongation. Arabidopsis seedlings were grown on solid ½MS medium for 4 days and then transferred for 3 more days to liquid ½ MS supplemented with the studied compounds at either 0.5 or 50 μM final concentration. Hypocotyl length is represented relative to that of mock-treated seedlings from the same biological repeats. n>400 seedlings for DMSO and A68 initial hit (control treatments throughout the experiments), n>30 seedlings for the A68 variants. Student's two-sample t-test, *P<0.05, **P<0.01 and ***P<0.001. FIG. 3: Hypocotyl elongation dose-response curves for A68 and three bioactive variants A68-6, A68-8 and A68-53 showing the half-maximum effective concentration EC50. A bioactive compound, herein further designated as A68, was identified by screening a commercial 10,000 compound library (DIVERSet, ChemBridge Corporation) for hypocotyl elongation phenotype at a final concentration of 50 μM in 2% DMSO. […]

SMILES strings stand for the structures.

Take `Cc1cccc(C(=O)Nc2ccc(Oc3ccc4c(c3)C(=O)NC4=O)cc2)c1` [Compound A68, N-(4-((1,3-dioxoisoindolin-5-yl)oxy)phenyl)-3-methylbenzamide]: in the assay with Arabidopsis seedlings, the “tolerance to mild osmotic stress” value is on record as “enhance tolerance”. In addition, in assay [1], the lateral root number entry is listed as “increases” and the primary root growth entry is reported as “suppresses”. For the same compound, the “efficacy to decrease frost damage on strawberry” value in assay [2] (A68 suspended in acetone, foliar spray) is listed as “clear indications of efficacy”. Besides, in assay [2] (maximum efficacy of the Gauss-curve), the optimal dose-rate entry was “around 1000 mg/ha”. The hypocotyl elongation entry in assay [3] is on record as “promotes”.

Source of the values: patent publication US20260223847A1, “Compounds for Increasing Frost Tolerance in Plants” (VIB VZW, priority 2023, published 2026).
